# Reference: US6977082B2, “High efficacy antibacterial compositions having enhanced esthetic and skin care properties” (The Dial Corporation, priority 2001, dated 2005)
# Assay: Repeat Application Soap Chamber (irritation) Test
# Settings: occlusive patches on volar forearm, six days, dilute solutions
# Description: Twelve male and female subjects between the ages of 18 and 65, who were in good health, were enrolled in the test. Dilute solutions of all test compositions were made each day of patching. Patches were totally occlusive chambers, 12 mm in diameter, applied to the volar forearm for a total of six days. Expert visual gradings, using a four-point scale for erythema, scaling, and fissuring were used as the objective measure of observation for this study. Grading was performed at baseline (i.e., when panelists were enrolled), 30 minutes after patch removal on days one to six, and at 24 hours on days one to six. A maximum for each tested characteristic was established as a “3” score.
structure (smiles),measurement,value
"CCCCCCCCCCCCOS(=O)(=O)[O-].[Na+] [SLS, sodium lauryl sulfate]","irritation potential, ranking from highest to lowest",SLS>HCPHW-E>HCPHW-H>HCPHW-G>HCPHW-F>Composition A>Negative Control
